The term stoichiometry N denotes a count of units in the complex or per binding partner.

Consider two compounds from article PMC2784932 (Biochemistry, 2009).

One assay has as its system T4Y. Kind of assay: Effect of isolated Phe on self-association by turbidity. The conditions noted are these: T4Y c=7mg/ml, 44°C, PBS, 1peptide:60F.
Another assay relates to (Pro-Hyp-Gly)10. Kind of assay: DSC of triple-helical peptide in presence of Phe. The conditions noted are these: PBS pH 7, peptide c=1mg/ml, molar ratio peptide:Phe = 1:200.
A further assay deals with FT4Y. Kind of assay: Effect of isolated Phe on self-association by turbidity. The settings on record: FT4Y c=3mg/ml, 46°C, data not shown.
For assay [1], the target named is T4, type IV collagen model peptide (POG)3QOGLOGLOG(POG)4. Kind of assay: critical concentration.
The target is the same in assay [2]. Kind of assay: dynamic light scattering.

In the case of `N[C@@H](Cc1ccccc1)C(=O)O` [Phe, L-phenylalanine], the “effect on self-association of T4Y” value in the assay with T4Y is on record as “substantial delay in self-association”. The “effect on thermal stability of (Pro-Hyp-Gly)10 by DSC” value in the assay with (Pro-Hyp-Gly)10 is “slight destabilization”. In the assay with FT4Y, the “effect on self-association of FT4Y” value is given as “substantial delay in self-association”.

In the case of “T4, type IV collagen model peptide (POG)3QOGLOGLOG(POG)4”, in assay [1], the critical concentration worked out at 5.9 mg/mL. The stoichiometry N in assay [2] was found to be 3.
